The nature of assay [1]: ABTS radical scavenging assay. It is filed as biochemical. To be noted: mean ± SD (n = 3).
Assay [2] is described as follows: Ferric reducing/antioxidant power (FRAP) assay. Format: biochemical. To be noted: mean ± SD (n = 3). How it is done: The antioxidant activity of the isolated compounds was determined using ABTS and FRAP assays in triplicate, and the average values were considered.
Herein, antioxidant potential was measured based on the samples’ ability to reduce ferric to ferrous ion. This method relies on the reduction of ferricyanide relative to the sample. Samples (1 mL) were mixed with 2.5 mL of each of sodium phosphate buffer and K3Fe (CN)6, and then the reaction mixture was incubated (50 °C, 20 min). Afterward, 2.5 mL of trichloroacetic acid was added, and centrifugation (1000× g, 10 min) was carried out. Some 2.5 mL of the supernatant solution and an equal amount of deionized H2O and 0.5 mL of ferric chloride were then mixed, and the absorbance was recorded at 700 nm.

This note sets out measurements from publication PMC10574154, “Antioxidant and Anti-Aging Phytoconstituents from Faucaria tuberculosa: In Vitro and In Silico Studies” (Molecules, 2023).

Values after ≈ are worked out from the molar mass of the structure shown.

Take `Oc1cc(O)cc(O)c1` [Compound 1, phloroglucinol]: the “IC50 Value ABTS Assay” value in assay [1] was 6.44 ± 0.47 µg/mL (≈ 51.1 µM). The “IC50 Value FRAP Assay” value in assay [2] was 12.89 ± 0.93 µg/mL (≈ 102 µM).

With `COc1cc(-c2oc3cc(O)cc(O)c3c(=O)c2OC2OC(COC3OC(C)C(O)C(O)C3O)C(O)C(O)C2O)ccc1O` (stereo not shown) [Compound 3, isorhamnetin 3-O-rutinoside], the “IC50 Value ABTS Assay” value in assay [1] is 12.24 ± 0.61 µg/mL (≈ 19.6 µM). The “IC50 Value FRAP Assay” value in assay [2] is listed as 25.24 ± 2.03 µg/mL (≈ 40.4 µM).

For the compound `COc1cc(-c2oc3cc(O)cc(O)c3c(=O)c2OC2OC(COC3OC(C)C(OC4OC(C)C(O)C(O)C4O)C(O)C3O)C(O)C(O)C2O)ccc1O` (stereo not drawn) [Compound 5, Isorhamnetin 3-O-[α-rhamnopyranosyl-(1→4)-α-rhamnopyranosyl-(1→6)-β-glucopyranoside]], the “IC50 Value ABTS Assay” value in assay [1] is reported as 18.19 ± 2.94 µg/mL (≈ 23.6 µM). Further, the “IC50 Value FRAP Assay” value in assay [2] came out at 35.04 ± 2.89 µg/mL (≈ 45.5 µM).

For `O=C1O[C@H]([C@@H](O)CO)C(O)=C1O` [Ascorbic acid, reference compound], the “IC50 Value ABTS Assay” value in assay [1] is 10.67 ± 0.85 µg/mL (≈ 60.6 µM). Moreover, in assay [2], the “IC50 Value FRAP Assay” value amounted to 20.86 ± 1.28 µg/mL (≈ 118 µM).

For the compound `OC[C@H]1O[C@@H](Oc2cc(O)cc(O)c2)[C@H](O)[C@@H](O)[C@@H]1O` [Compound 2, 3,5-dihydroxyphenyl β-D-glucopyranoside], the “IC50 Value ABTS Assay” value in assay [1] was 43.40 ± 3.18 µg/mL (≈ 151 µM). For the same compound, the “IC50 Value FRAP Assay” value in assay [2] was 64.52 ± 4.15 µg/mL (≈ 224 µM).
